Test results reported in patent US8779142B2, “Azabicyclo compound and salt thereof” (Taiho Pharmaceutical Co., Ltd., priority 2009, dated 2014).

Key:
SK-BR-3 cells = test: Measurement of cell growth inhibition (crystal violet staining method); type: cell-based; settings: Homo sapiens; breast cancer SK-BR-3 cells, 72 hr culture with test substance
[1] = target: human HSP90 alpha protein (HSP90 N-terminal protein, amino acids 2-236) (Homo sapiens (Human), UniProt P07900); test: Measurement of HSP90-binding activity (AlphaScreen competitive assay, biotin-labeled geldanamycin); settings: concentration inhibiting binding of biotin-labeled geldanamycin (40 nM) to purified HSP90 to 50% of control; read-out: HSP-binding activity IC50

CC(C)c1nn(-c2ccc(C(N)=O)c(NC3CCNCC3)c2)c2nccc(-c3cnc4ccccc4c3)c12 [Example 76, 4-{3-Isopropyl-4-(quinolin-3-yl)-1H-pyrazolo[3,4-b]pyridin-1-yl}-2-(piperidin-4-ylamino)-benzamide]
IC50 (SK-BR-3 cells): 40 nM
IC50 [1]: 190 nM

CCc1nn(-c2ccc(C(N)=O)c(N[C@H]3CC[C@H](O)CC3)c2)c2nccc(-c3cnc4ccccc4c3)c12 [Example 3, 2-(Trans-4-hydroxycyclohexylamino)-4-{4-(quinolin-3-yl)-3-ethyl-1H-pyrazolo[3,4-b]pyridin-1-yl}benzamide]
IC50 (SK-BR-3 cells): 20 nM
IC50 [1]: 170 nM

Cc1cn(-c2ccc(C(N)=O)c(NCCCNC(C)C)c2)c2nccc(-c3cnc4ccccc4c3)c12 [Example 60, 2-[3-(Isopropylamino)propylamino]-4-{3-methyl-4-(quinolin-3-yl)-1H-pyrrolo[2,3-b]pyridin-1-yl}benzamide]
IC50 (SK-BR-3 cells): 1530 nM
IC50 [1]: 1370 nM

NC(=O)c1ccc(-n2nc(C(F)(F)F)c3c(-n4cnc(-c5cccnc5)c4)ccnc32)cc1N [Example 176, 2-Amino-4-{4-(4-(pyridin-3-yl)-1H-imidazol-1-yl)-3-(trifluoromethyl)-1H-pyrazolo[3,4-b]pyridin-1-yl}benzamide]
IC50 (SK-BR-3 cells): 410 nM
IC50 [1]: 420 nM

CC(C)c1nn(-c2ccc(C(N)=O)cc2C2CC2)c2nccc(-n3cnc(-c4cccnc4)c3)c12 [Example 138, 3-Cyclopropyl-4-{3-isopropyl-4-(4-(pyridin-3-yl)-1H-imidazol-1-yl)-1H-pyrazolo[3,4-b]pyridin-1-yl}benzamide]
IC50 (SK-BR-3 cells): 530 nM
IC50 [1]: 190 nM

CC(C)c1nn(-c2ccc(C(N)=O)c(Nc3ccc(CN4CCCC4)cc3)c2)c2nccc(-c3cnc4ccccc4c3)c12 [Example 35, 4-{3-Isopropyl-4-(quinolin-3-yl)-1H-pyrazolo[3,4-b]pyridin-1-yl}-2-{4-(pyrrolidin-1-ylmethyl)phenylamino}benzamide]
IC50 (SK-BR-3 cells): 280 nM
IC50 [1]: 1500 nM

CC(C)c1cc(C(N)=O)ccc1-n1nc(C(C)C)c2c(-n3cnc(-c4cnn(C)c4)c3)ccnc21 [Example 104, 3-Isopropyl-4-{3-isopropyl-4-(4-(1-methyl-1H-pyrazol-4-yl)-1H-imidazol-1-yl)-1H-pyrazolo[3,4-b]pyridin-1-yl}benzamide]
IC50 (SK-BR-3 cells): 200 nM
IC50 [1]: 120 nM

Cn1cc(-c2cn(-c3ccnc4c3c(C(F)(F)F)nn4-c3ccc(C(N)=O)c(N)c3)cn2)cn1 [Example 157, 2-Amino-4-{4-(4-(1-methyl-1H-pyrazol-4-yl)-1H-imidazol-1-yl)-3-(trifluoromethyl)-1H-pyrazolo[3,4-b]pyridin-1-yl}benzamide]
IC50 (SK-BR-3 cells): 190 nM
IC50 [1]: 130 nM

CC(C)n1cc(-c2cn(-c3ccnc4c3c(C(F)(F)F)nn4-c3ccc(C(N)=O)cc3N)cn2)cn1 [Example 186, 3-Amino-4-{4-(4-(1-isopropyl-1H-pyrazol-4-yl)-1H-imidazol-1-yl)-3-(trifluoromethyl)-1H-pyrazolo[3,4-b]pyridin-1-yl}benzamide]
IC50 (SK-BR-3 cells): 1930 nM
IC50 [1]: 800 nM

CC(C)c1cc(C(N)=O)ccc1-n1nc(C(C)C)c2c(-n3cnc(-c4cccnc4)c3)ccnc21 [Example 137, 3-Isopropyl-4-{3-isopropyl-4-(4-(pyridin-3-yl)-1H-imidazol-1-yl)-1H-pyrazolo[3,4-b]pyridin-1-yl}benzamide]
IC50 (SK-BR-3 cells): 430 nM
IC50 [1]: 280 nM

Cc1cc(C(N)=O)ccc1-n1nc(C(F)(F)F)c2c(-n3cnc(-c4cnn(C)c4)c3)ccnc21 [Example 154, 3-Methyl-4-{4-(4-(1-methyl-1H-pyrazol-4-yl)-1H-imidazol-1-yl)-3-(trifluoromethyl)-1H-pyrazolo[3,4-b]pyridin-1-yl}benzamide]
IC50 (SK-BR-3 cells): 120 nM
IC50 [1]: 140 nM

CSCCCNc1cc(-n2nc(C(C)C)c3c(-c4cnc5ccccc5c4)ccnc32)ccc1C(N)=O [Example 23, 4-{3-Isopropyl-4-(quinolin-3-yl)-1H-pyrazolo[3,4-b]pyridin-1-yl}-2-{3-(methylthio)propylamino}benzamide]
IC50 (SK-BR-3 cells): 190 nM
IC50 [1]: 490 nM

CCCc1cn(-c2ccc(C(N)=O)c(N[C@H]3CC[C@H](O)CC3)c2)c2nccc(-c3cnc4ccccc4c3)c12 [Example 45, 2-(Trans-4-hydroxycyclohexylamino)-4-{3-propyl-4-(quinolin-3-yl)-1H-pyrrolo[2,3-b]pyridin-1-yl}benzamide]
IC50 (SK-BR-3 cells): 10 nM
IC50 [1]: 90 nM

Cc1cc(-n2nc(C(C)C)c3c(-c4cnc5ccccc5c4)ccnc32)ccc1C(N)=O [Example 81, 4-{3-Isopropyl-4-(quinolin-3-yl)-1H-pyrazolo[3,4-b]pyridin-1-yl}-2-methylbenzamide]
IC50 (SK-BR-3 cells): 630 nM
IC50 [1]: 1030 nM

NC(=O)c1ccc(-n2nc(C(F)(F)F)c3c(-n4cnc(-c5cccnc5)c4)ccnc32)c(NC2CCCC2)c1 [Example 183, 3-(Cyclopentylamino)-4-{4-(4-(pyridin-3-yl)-1H-imidazol-1-yl)-3-(trifluoromethyl)-1H-pyrazolo[3,4-b]pyridin-1-yl}benzamide]
IC50 (SK-BR-3 cells): 150 nM
IC50 [1]: 330 nM

CC(C)c1nn(-c2ccc(C(N)=O)cc2NCC(F)F)c2nccc(-n3cnc(-c4cnn(C)c4)c3)c12 [Example 123, 3-(2,2-Difluoroethylamino)4-{3-isopropyl-4-(4-(1-methyl-1H-pyrazol-4-yl)-1H-imidazol-1-yl)-1H-pyrazolo[3,4-b]pyridin-1-yl}benzamide]
IC50 (SK-BR-3 cells): 120 nM
IC50 [1]: 190 nM

CCc1cc(C(N)=O)ccc1-n1nc(C(C)C)c2c(-n3cnc(-c4cnn(C)c4)c3)ccnc21 [Example 102, 3-Ethyl-4-{3-isopropyl-4-(4-(1-methyl-1H-pyrazol-4-yl)-1H-imidazol-1-yl)-1H-pyrazolo[3,4-b]pyridin-1-yl}benzamide]
IC50 (SK-BR-3 cells): 170 nM
IC50 [1]: 210 nM

Cc1nn(-c2ccc(C(N)=O)c(N[C@H]3CC[C@H](O)CC3)c2)c2nccc(-c3cnc4ccccc4c3)c12 [Example 2, 2-(Trans-4-hydroxycyclohexylamino)-4-{4-(quinolin-3-yl)-3-methyl-1H-pyrazolo[3,4-b]pyridin-1-yl}benzamide]
IC50 (SK-BR-3 cells): 30 nM
IC50 [1]: 130 nM
